Results: the supplement of paper PMC10307832

What was measured:
Experiment in all cases: relative viability (nuclei count vs DMSO), 5 days (fraction); higher = more cells survive
[1] = compound: C1=CC=C2C(=C1)N=C(S2)C(C#N)C3=NC(=NC=C3)NCCC4=CN=CC=C4 + C[C@]1(O)C[C@@H](c2nc(-c3ccc4ccc(-c5ccccc5)nc4c3)c3c(N)nccn32)C1 [Linsitinib] (partner 1 µM)
Procedure, shortened: (§1)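 Lung cancer cell lines were seeded in 1536-well plates and dosed by pin tool the next day, with either a single drug or a fixed anchor-drug dose combined with five library-drug doses (not always all listed) spaced in √10 steps. Five days later, one step fixed the cells and stained their nuclei (final 0.05% Triton X-100, 1% formaldehyde, 1 ug/ml Hoechst), and nuclei were counted on 4× images. Relative viability is the nuclei count in treated wells divided by the count in vehicle wells, and each value is the median of duplicate plates.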

[2] = compound: C1=CC=C2C(=C1)N=C(S2)C(C#N)C3=NC(=NC=C3)NCCC4=CN=CC=C4 + Cc1nc(Nc2ncc(C(=O)Nc3c(C)cccc3Cl)s2)cc(N2CCN(CCO)CC2)n1 [Dasatinib] (partner 0.075 µM)
Procedure, shortened: as §1

NVP-TAE684 + Decitabine = compound: COc1cc(N2CCC(N3CCN(C)CC3)CC2)ccc1Nc1ncc(Cl)c(Nc2ccccc2S(=O)(=O)C(C)C)n1 [NVP-TAE684] + Nc1ncn([C@H]2C[C@H](O)[C@@H](CO)O2)c(=O)n1 [Decitabine] (partner 2 µM)
Procedure, shortened: as §1

Vandetanib + Navitoclax = compound: COc1cc2/c(=N/c3ccc(Br)cc3F)nc[nH]c2cc1OCC1CCN(C)CC1 [Vandetanib] + CC1(C)CCC(c2ccc(Cl)cc2)=C(CN2CCN(c3ccc(C(=O)NS(=O)(=O)c4ccc(N[C@H](CCN5CCOCC5)CSc5ccccc5)c(S(=O)(=O)C(F)(F)F)c4)cc3)CC2)C1 [Navitoclax] (partner 0.5 µM)
Procedure, shortened: as §1

Row | Cell Line | relative viability ([1]; first compound 0.005 µM) | relative viability ([1]; first compound 0.01581 µM) | relative viability ([1]; first compound 0.05 µM) | relative viability ([1]; first compound 0.1581 µM) | relative viability ([1]; first compound 0.5 µM) | relative viability ([2]; first compound 0.005 µM) | relative viability ([2]; first compound 0.01581 µM) | relative viability ([2]; first compound 0.05 µM) | relative viability ([2]; first compound 0.1581 µM) | relative viability ([2]; first compound 0.5 µM) | relative viability (NVP-TAE684 + Decitabine; first compound 0.2 µM) | relative viability (NVP-TAE684 + Decitabine; first compound 0.6325 µM) | relative viability (NVP-TAE684 + Decitabine; first compound 2 µM) | relative viability (Vandetanib + Navitoclax; first compound 0.02 µM) | relative viability (Vandetanib + Navitoclax; first compound 0.06325 µM) | relative viability (Vandetanib + Navitoclax; first compound 0.2 µM) | relative viability (Vandetanib + Navitoclax; first compound 0.6325 µM) | relative viability (Vandetanib + Navitoclax; first compound 2 µM)
1 | NCI-H2009 | 1.15 | 1.22 | 1.22 | 1.25 | 1.07 | 0.257 | 0.25 | 0.261 | 0.324 | 0.267 | 0.372 | 0.34 | 0.345 | 1.12 | 1.15 | 1.24 | 1.19 | 1.11
2 | NCI-H1395 | 1.07 |  | 0.978 | 1.07 | 1.29 | 0.353 | 0.398 | 0.408 | 0.411 | 0.396 | 0.682 | 0.712 | 0.616 | 1.11 | 1.06 | 1.04 | 1.25 | 1.29
3 | NCI-H1650 |  |  |  |  |  | 0.449 | 0.278 | 0.324 | 0.372 | 0.263 | 0.399 | 0.411 | 0.343 | 1.15 | 1.02 |  | 1.1 | 1.13
4 | NCI-H2085 | 0.694 | 0.978 | 0.867 | 1.04 | 0.839 | 0.277 | 0.216 | 0.236 | 0.237 | 0.219 | 0.533 | 0.458 | 0.458 | 1.23 | 1.07 | 1.12 | 1.03 | 1
5 | NCI-H1666 | 0.81 | 0.846 | 0.722 | 0.91 | 0.766 | 0.603 | 0.754 | 0.734 | 0.838 | 0.818 | 0.71 | 0.732 | 0.597 | 0.83 | 0.861 | 0.951 | 0.88 | 0.46
6 | NCI-H1993 | 0.861 | 0.784 | 0.749 | 0.749 | 0.681 | 0.565 | 0.607 | 0.487 | 0.673 | 0.536 | 0.618 | 0.629 | 0.501 | 0.932 | 0.942 | 0.853 | 0.838 | 0.789
7 | NCI-H1437 | 0.789 | 1.23 | 1.09 | 1.11 | 0.692 | 0.363 | 0.303 | 0.528 | 0.562 | 0.376 | 0.596 | 0.548 | 0.474 | 1.03 | 1.06 | 1.16 | 1.08 | 1.08
8 | ABC-1 | 0.979 | 0.887 | 1.01 | 0.962 | 0.601 | 0.634 | 0.459 | 0.631 | 0.573 | 0.397 | 1.14 | 0.938 | 0.679 |  |  |  |  | 
9 | NCI-H727 | 0.328 | 0.321 | 0.228 | 0.396 | 0.298 |  | 0.387 | 0.368 | 0.413 | 0.347 | 0.836 | 0.771 | 0.552 | 0.45 | 0.468 | 0.528 | 0.449 | 0.287
10 | NCI-H650 | 0.838 | 0.578 | 0.803 | 1.26 | 0.984 | 0.43 |  | 0.405 | 0.589 | 0.476 | 0.306 | 0.329 | 0.276 |  |  |  |  | 
11 | IA-LM |  | 0.544 | 0.32 | 0.607 | 0.637 |  |  |  |  |  |  |  |  | 0.648 | 0.661 | 0.878 | 1.1 | 1.29
12 | NCI-H2342 |  |  |  |  |  | 0.32 | 0.314 | 0.349 | 0.328 | 0.337 | 0.727 | 0.835 | 0.632 |  |  |  |  | 
13 | NCI-H358 | 0.533 | 0.739 | 0.654 | 0.722 | 0.654 | 0.177 | 0.155 | 0.162 | 0.178 | 0.245 | 0.198 | 0.197 | 0.0907 |  |  |  |  | 
14 | NCI-H2170 |  |  |  |  |  | 0.447 | 0.498 | 0.501 | 0.675 | 0.611 | 0.472 | 0.477 | 0.418 | 0.621 | 0.618 | 0.565 | 0.567 | 0.502
15 | NCI-H522 |  |  |  |  |  | 0.873 | 0.822 | 0.884 | 1.05 | 0.935 | 0.604 | 0.731 | 0.66 |  |  |  |  | 
16 | NCI-H661 | 0.509 | 0.667 | 0.545 | 0.516 | 0.592 | 0.778 | 0.785 | 0.817 | 0.917 | 0.805 | 0.584 | 0.495 | 0.508 |  |  |  |  | 
17 | Calu-6 | 0.884 | 0.982 | 0.89 | 1.07 | 0.914 |  |  |  |  |  |  |  |  | 0.891 | 0.761 | 0.973 | 0.895 | 0.734
18 | NCI-H2228 | 0.792 | 0.762 | 0.629 | 0.734 | 0.634 | 0.295 | 0.491 | 0.442 | 0.514 | 0.423 |  |  |  | 0.917 | 0.482 |  | 0.938 | 0.695
19 | NCI-H1703 | 0.547 | 0.711 |  | 0.718 | 0.676 |  |  |  |  |  |  |  |  | 1.15 |  | 1.27 | 0.575 | 0.256
20 | CAL-12T | 0.76 | 0.781 | 0.671 | 0.991 | 0.839 | 0.236 | 0.308 | 0.341 | 0.508 | 0.242 |  |  |  | 1.22 | 1.19 | 1.37 | 1.28 | 1.13
21 | NCI-H1623 |  |  |  |  |  | 0.476 | 0.476 | 0.514 | 0.612 | 0.591 |  |  |  |  |  |  |  | 
22 | ChaGo-K-1 |  |  |  |  |  |  | 0.567 | 0.577 | 0.681 | 0.545 | 0.536 | 0.52 | 0.427 | 0.939 | 0.998 | 0.942 | 1.24 | 0.489
23 | NCI-H1563 | 1.27 | 1.32 | 1.16 | 1.2 | 1.18 | 0.536 | 0.413 | 0.426 | 0.44 | 0.473 |  |  |  |  |  |  |  | 
24 | EBC-1 | 1.04 | 0.871 | 0.502 | 1.01 | 0.812 |  |  |  |  |  |  |  |  | 0.36 | 0.39 | 0.449 | 0.366 | 0.38
25 | NCI-H1648 |  |  |  |  |  |  |  |  |  |  | 0.39 | 0.449 | 0.27 |  |  |  |  | 
